14 compounds from patent US20250326741A1, “GLUCOSE-DEPENDENT INSULINOTROPIC POLYPEPTIDE RECEPTOR ANTAGONISTS AND USES THEREOF” (Pfizer Inc., priority 2024, published 2025) can be followed below.

This assay deals with T1, human Glucose-dependent Insulinotropic Polypeptide Receptor (hGIPR) (Homo sapiens, UniProt P48546).
T1 sequence (P48546 22-466): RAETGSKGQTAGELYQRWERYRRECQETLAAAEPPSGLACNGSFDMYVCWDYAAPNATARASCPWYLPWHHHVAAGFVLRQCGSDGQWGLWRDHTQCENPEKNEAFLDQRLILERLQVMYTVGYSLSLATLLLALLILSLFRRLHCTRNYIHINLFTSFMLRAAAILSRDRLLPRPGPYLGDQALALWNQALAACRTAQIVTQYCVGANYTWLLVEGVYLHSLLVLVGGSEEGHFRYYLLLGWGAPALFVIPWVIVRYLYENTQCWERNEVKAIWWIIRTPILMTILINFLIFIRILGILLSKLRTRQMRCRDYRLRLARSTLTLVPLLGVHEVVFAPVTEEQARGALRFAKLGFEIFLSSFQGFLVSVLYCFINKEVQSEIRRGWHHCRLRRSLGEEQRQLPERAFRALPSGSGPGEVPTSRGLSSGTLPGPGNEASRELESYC
Briefly: Functional in vitro GIPR antagonist potency assay (intracellular cAMP, HTRF, hGIP stimulation at EC80). In kind it is cell-based. Conditions: geometric mean; CHO-K1 cells stably expressing human GIPR, cAMP after hGIP stimulation at EC80. On the procedure: Example AA. Functional In Vitro GIPR Antagonist Potency Assay
The functional in vitro antagonist potency for test compounds was determined by monitoring intracellular cyclic adenosine monophosphate (cAMP) levels in Chinese hamster ovary (CHO)—K1 cells stably expressing the human Glucose-dependent Insulinotropic Polypeptide Receptor (hGIPR). Following agonist activation, hGIPR associates with the G-protein complex causing the Gas subunit to exchange bound guanosine diphosphate (GDP) for guanosine triphosphate (GTP), followed by dissociation of the Gas-GTP complex. The activated Gas subunit can couple to downstream effectors to regulate the levels of second messengers or cAMP within the cell. Thereby, determination of intracellular cAMP levels allows for pharmacological characterization. Intracellular cAMP levels are quantitated using a homogenous assay utilizing the Homogeneous Time Resolved Fluorescence (HTRF) technology from Perkin Elmer. The method is a competitive immunoassay between native cAMP produced by the cells and cAMP labelled with the acceptor dye, d2. The two entities compete for binding to a monoclonal anti-cAMP antibody labeled with cryptate. The specific signal is inversely proportional to the concentration of cAMP in the cells.
Test compounds were solubilized to a concentration of 30 mM in 100% dimethyl sulfoxide (DMSO). An 11-point dilution series using 1 in 3.162-fold serial dilutions was created in 100% DMSO with a top concentration of 8 mM. The serially diluted compound was spotted with an Echo Acoustic liquid handler (Beckman Coulter) into a 384-well assay plate (Corning, Cat No. 3824) at 50 nL/well with duplicate points at each concentration, at a 200× final assay concentration (FAC). The final compound concentration range in the assay was 40 μM to […], with a final DMSO concentration of 0.5%.
Frozen assay-ready vials (at 1×10^7 cells/vial) of CHO-K1 cells stably expressing the Gs-coupled human GIPR receptor (Eurofins, DiscoverX, Cat No. 95-0146C2) were thawed, counted, and resuspended in assay buffer consisting of Hank's Balanced Salt Solution (HBSS, Lonza Cat No. 10-527) containing 20 mM (4-(2-hydroxyethyl)-1-piperazineethanesulfonic acid (HEPES, Lonza, Cat No. 17-737E), 0.1% bovine serum albumin (BSA, Sigma, Cat No. A7979), and 200 μM 3-isobutyl-1-methylxanthine (IBMX, Sigma, Cat No. 15879) at a density of 4×10^5 cells/mL. Cells were added to assay plate (5 μL/well of 4×10^5 cells/mL stock for 2,000 cells/well final) containing 50 nL of 200×FAC test compound, and incubated at 37° C. (95% O2: 5% CO2) for 2 hours, with micro-clime lids (Labcyte, Cat No. LLS-0310). Following the 2-hour cell and compound incubation, a stimulation mix comprised of hGIPR agonist human glucose-dependent insulinotropic polypeptide (hGIP, full length, Sigma Cat No. G2269) in assay buffer/0.1% DMSO was added to the assay plate (5 μL/well) at an estimated EC80 FAC (based on previous hGIP agonist curves) and incubated for another 30 minutes with micro-clime lids at 37° C. (95% O2: 5% CO2), after which intracellular cAMP levels were quantified as per Perkin Elmer's protocol (5 μL of d2 and then 5 μL cryptate, incubated for 1 hour at room temperature). Emission spectra of samples were measured on a Pherastar plate reader (BMG Labtech Inc) using a HTRF protocol (excitation, 320 nm; emission, 665 nm/620 nm).
(95% O2: 5% CO2), with a micro-clime lid. Following the 2-hour cell and DMSO incubation, a hGIP concentration response curve at 2×FAC (12-point curve using 1 in 3 serial dilutions, with triplicate points at each concentration, 100 nM final top concentration) in assay buffer/1% DMSO was added (5 μL/well) and incubated for a further 30 minutes with a micro-clime lid at 37° C. (95% O2: 5% CO2), after which intracellular cAMP levels were quantified and samples measured as described previously. Experiments passed quality control if the agonist concentration used for stimulation fell between the on-the-day EC50-EC90. […]
Background: In TR-FRET formats the signal depends on donor and acceptor labels being close together.
As to `Cc1c(C(=O)O)ccc(-n2ccc(NC(=O)[C@H]3CCCN3C(=O)COc3ccc(OC(F)(F)F)cc3)n2)c1F` [Example 65, 3-fluoro-2-methyl-4-{3-[(1-{[4-(trifluoromethoxy)phenoxy]acetyl}-D-prolyl)amino]-1H-pyrazol-1-yl}benzoic acid], the IC50 was determined as 0.04 µM.

In turn, `Cc1cc(-n2ccc(NC(=O)[C@H]3CCCN3C(=O)Nc3ccc(C(C)C)c(F)c3)n2)ccc1C(N)=O` [Example 16, (2R)—N^2-[1-(4-Carbamoyl-3-methylphenyl)-1H-pyrazol-3-yl]-N^1-[3-fluoro-4-(propan-2-yl)phenyl]pyrrolidine-1,2-dicarboxamide] gave an IC50 of 0.11 µM.

In the case of `Cc1cc(-n2ccc(NC(=O)[C@H]3CCCN3C(=O)NCc3ccc(OC(F)(F)F)cc3)n2)ccc1C(=O)O` [Example 8, 2-Methyl-4-(3-{[1-({[4-(trifluoromethoxy)phenyl]methyl}carbamoyl)-D-prolyl]amino}-1H-pyrazol-1-yl)benzoic Acid], inhibition was half-maximal at 0.061 µM (IC50). Against the preceding compound, the IC50 is about 1.8-fold lower.

As for `Cc1cc(-n2ccc(NC(=O)[C@H]3CCCN3C(=O)Nc3ccc(C(F)(F)F)cc3)n2)ccc1C(N)=O` [Example 49], inhibition was half-maximal at 0.24 µM (IC50). Compared with the last compound, the IC50 is about 3.9-fold higher.

Regarding `Cc1cc(NC(=O)N2CCC[C@@H]2C(=O)Nc2ccn(-c3ccc(C(=O)O)cn3)n2)ccc1C(C)C` [Example 28, 6-{3-[(1-{[3-methyl-4-(propan-2-yl)phenyl]carbamoyl}-D-prolyl)amino]-1H-pyrazol-1-yl}pyridine-3-carboxylic acid], the half-inhibitory concentration (IC50) was 0.029 µM.

`Cc1cc(NC(=O)N2CCC[C@@H]2C(=O)Nc2ccn(-c3ccc(C(=O)O)cc3)n2)ccc1C(F)(F)F` [Example 31, 4-{3-[(1-{[3-methyl-4-(trifluoromethyl)phenyl]carbamoyl}-D-prolyl)amino]-1H-pyrazol-1-yl}benzoic acid]: half-maximal inhibition (IC50) was put at 0.024 µM.

For the compound `O=C(O)c1ccc(-n2ccc(NC(=O)[C@H]3CCCN3C(=O)Nc3ccc(C(F)(F)F)cc3)n2)cc1` [Example 23, 4-{3-[(1-{[4-(trifluoromethyl)phenyl]carbamoyl}-D-prolyl)amino]-1H-pyrazol-1-yl}benzoic acid], the half-maximal inhibitory concentration (IC50) was determined as 0.043 µM.

The compound `Cc1cc(-n2ccc(NC(=O)[C@H]3CCCN3C(=O)Nc3ccc(Cl)c(Cl)c3)n2)ccc1C(=O)O` [Example 37, 4-[3-({1-[(3,4-dichlorophenyl)carbamoyl]-D-prolyl}amino)-1H-pyrazol-1-yl]-2-methylbenzoic acid] returned an IC50 of 0.094 µM.

`CC(C)c1ccc(NC(=O)N2CCC[C@@H]2C(=O)Nc2ccn(-c3ccc(C(N)=O)cc3F)n2)cc1` [Example 36] registered a concentration for half-maximal inhibition (IC50) of 0.042 µM. Against the preceding compound, the IC50 is about 2.2-fold lower.

Turning to `CC(C)c1ccc(NC(=O)N2CCC[C@@H]2C(=O)Nc2ccn(-c3cc(F)c(O)c(F)c3)n2)cc1F` [Example 14, (2R)—N^2-[1-(3,5-Difluoro-4-hydroxyphenyl)-1H-pyrazol-3-yl]-N^1-[3-fluoro-4-(propan-2-yl)phenyl]pyrrolidine-1,2-dicarboxamide], half-maximal inhibition (IC50) required 0.0072 µM.

In turn, `Cc1cc(-n2ccc(NC(=O)[C@H]3CCCN3C(=O)Nc3ccc(C(C)C)cc3)n2)c(F)cc1C(=O)O` [Example 50, 5-fluoro-2-methyl-4-{3-[(1-{[4-(propan-2-yl)phenyl]carbamoyl}-D-prolyl)amino]-1H-pyrazol-1-yl}benzoic acid] displayed an IC50 of 0.021 µM. This IC50 lies about 2.9-fold higher than the previous one.

`CC(C)c1ccc(NC(=O)N2CCC[C@@H]2C(=O)Nc2ccn(-c3cccc(C(=O)O)c3)n2)cc1` [Example 20, 3-{3-[(1-{[4-(propan-2-yl)phenyl]carbamoyl}-D-prolyl)amino]-1H-pyrazol-1-yl}benzoic acid] came in with an IC50 of 0.24 µM.

`Cc1cc(-n2ccc(NC(=O)[C@H]3CCCN3C(=O)COc3ccc(OC(F)(F)F)cc3)n2)ccc1C(=O)O` [Example 63, 2-methyl-4-{3-[(1-{[4-(trifluoromethoxy)phenoxy]acetyl}-D-prolyl)amino]-1H-pyrazol-1-yl}benzoic acid] had an IC50 of 0.046 µM. This IC50 is about 5.2-fold lower than that of the compound before.

In turn, `CC(C)c1ccc(NC(=O)N2CCC[C@@H]2C(=O)Nc2ccn(-c3ccc(O)cc3F)n2)cc1` [Example 44] had an IC50 of 0.034 µM. This IC50 and that of the compound before are within 1.5-fold of each other.

What is called IC50 is the point on the concentration scale where inhibition reaches its midpoint. High values mean weaker potency in that assay, low ones greater potency in that assay.
